Publication PMC7038073, “Substituted Piperazines as Novel Potential Radioprotective Agents” (Molecules, 2020)
Values joined by “and” are separate entries in the source; they are usually repeats but may differ in a detail not shown here. Equal values may be shown once.

Assays:
[1] = WST-1 cytotoxicity test, A549; type: cell-based; settings: human, A549 cells, 48 h, WST-1, mean ± SD of three experiments, read-out: relative viability (%) compared to untreated control; for viability at 48 h, 10 µM: A549, 10 µM; for viability at 48 h, 100 µM: A549, 100 µM
How it was run: (§1)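 Percent proliferation versus untreated cells (100%) is derived from WST-1 signal at 440 nm, measured 48 h after treatment with 10 µM or 100 µM compound; 1 µM doxorubicin serves as cytotoxicity control.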

[2] = WST-1 cytotoxicity test, HT-29; type: cell-based; settings: human, HT-29 cells, 48 h, WST-1, mean ± SD of three experiments, read-out: relative viability (%) compared to untreated control; for viability at 48 h, 10 µM: HT-29, 10 µM; for viability at 48 h, 100 µM: HT-29, 100 µM
How it was run: as §1

[3] = WST-1 cytotoxicity test, A2780; type: cell-based; settings: human, A2780 cells, 48 h, WST-1, mean ± SD of three experiments, read-out: relative viability (%) compared to untreated control; for viability at 48 h, 10 µM: A2780, 10 µM; for viability at 48 h, 100 µM: A2780, 100 µM
How it was run: as §1

BALB/c mice = assay: Safe use evaluation in vivo (MTD, symptoms, blood biochemistry, histopathology); parameters: key to piloerection / ataxia / prostration / tremor / excitation / saber-like tail / stooping / hyper/hypoventilation / drop of eyelids / lacrimation / convulsion: + (mild); ++ (moderate); +++ (severe); settings: animals 1 and 2; for ALP / ALT / AST / Amylase / Creatinine / Glucose / Urea: plasma 48 h after MTD i.p.
Source text: Mild to moderate signs of intoxication could be observed once the MTD (maximum tolerated dose) was reached. In vivo, MTD is described as the highest dose of a given compound that can be administered before showing signs of toxicity (based on the same dose regimen or series) and whose excess would be expected to be fatal, yielding unreliable results. Therefore, a staged approach (including core and intermediate dose levels) has become a suitable strategy in this regard.
The symptoms described in Tables S1 (in Supplementary Materials) and S2 (in Supplementary Materials) diminished spontaneously within 2 h. After observing these symptoms, MTD thresholds were set at 100, 200, 100, 200, 2000, and 650 mg/kg for compounds 4, 5, 6, 7, 8, and 10, respectively. Animals receiving MTD were further examined by necropsy 48 h after administration. Plasma (reflecting biochemical changes in blood), intestine with mesentery (site of administration), and liver and kidney (elimination organs) were collected to evaluate the toxic potential of the tested compounds. For evaluation of the impact of the compounds on organ function, we performed blood biochemistry test 48 h after administration. The test focused on seven important indicators: glucose and amylase for normal function of pancreas, alanine aminotransferase (ALT), aspartate aminotransferase (AST), and alkaline phosphatase (ALP) for the normal function of liver, and urea and creatinine for the normal function of kidneys. […] According to Thoolen et al., focal necrosis can be occasionally seen in untreated rodents and therefore is not pathognomonic of hepatotoxicity, which is consistent with our findings.
Both male and female BALB/c mice (Velaz s r.o., Prague, Czech Republic) with an average weight of 21 ± 0.8 g and 21 ± 0.8 g, respectively, were selected for the safe use evaluation in vivo. The mice were housed in environmentally controlled breeding units (Faculty of Military Health Sciences vivarium; temperature 21 ± 1 °C, 12/12 h light/dark cycle) with access to food (Cerea corp., Pardubice, Czech Republic) and water ad libitum. The acclimatization period of the mice was at least 10 days before each experiment. All experimental procedures and protocols were reviewed and approved by the Ethics Committee of the Faculty of Military Health Sciences in Hradec Kralove, University of Defence in Brno. Compounds 2, 3, 4, 5, 6, 7, 8, 9, and 10 were dissolved in physiological saline solution (B. Braun Melsungen AG, Melsungen, Germany) and injected intraperitoneally (i.p.) into the corresponding mouse groups, which were composed of two males and two females. Several doses were administered to determine the maximum tolerated dose (MTD), which was assessed by close observation for signs of toxicity within the first two hours after administration of the compounds, and then regularly over the following 48 h. The observed symptoms were registered according to the laboratory Animal Science Association UK guidelines (for a detailed description, see [36]. After 48 h, the surviving animals were euthanized with CO2 and evaluated by basic macroscopic necropsy. Venous blood was collected into heparinized tubes (Scanlab Systems, Prague, Czech Republic) and the plasma was separated in a U-320R centrifuge (Boeco, Hamburg, Germany) to further evaluate the toxic potential of the tested compounds. The concentrations of glucose, urea, and creatinine and the levels of alanine aminotransferase (ALT), aspartate aminotransferase (AST), alkaline phosphatase (ALP), and amylase were evaluated in a qualified biochemical laboratory of the University Hospital Hradec Kralove (Hradec Kralove, Czech Republic). Additionally, intestine, liver, and kidney samples were collected for histopathologic examination. […]

A549 cells = assay: MTT assay, IC50 and MTC; settings: for IC50 fold higher than that for compound 2 / MTC (maximum tolerated concentration): A549 cells, MTT; for MTC (maximum tolerated concentration): 24 h of treatment; for IC50: Homo sapiens, A549, 24 h, read-out: IC50 ± SEM
Protocol: In further experiments, MTT (3-(4,5-di-methylthiazol-2-yl)-2,5-diphenyltetrazolium bromide) assay was employed to evaluate the toxicological indexes of the newly synthesized compounds, including IC50 (half-maximal inhibitory concentration) and MTC (maximum tolerated concentration).
IC50 and MTC were determined through MTT assays. The MTT assay was performed according to [35]. In brief, the A549 cell line was plated in 96-well plates (100 µL, 9 × 10^3 cells per well) and incubated overnight. The tested compounds were prepared in phosphate buffer saline (PBS; Sigma–Aldrich) and serially diluted in DMEM (Dulbecco’s Modified Eagle Medium). An untreated control was included as a viability standard in each plate. After 24 h of treatment, the viability of A549 cells was measured at 570 nm. All experiments were performed in triplicate. The GraphPad Prism statistics software v5.04 (GraphPad Software Inc., San Diego, CA, USA) was used to calculate the IC50 values for parameter nonlinear regression. Values are expressed as mean ± SEM.

Row | Compound | viability at 48 h, 10 µM [1] [%] | viability at 48 h, 100 µM [1] [%] | viability at 48 h, 10 µM [2] [%] | viability at 48 h, 100 µM [2] [%] | viability at 48 h, 10 µM [3] [%] | viability at 48 h, 100 µM [3] [%] | ALP (BALB/c mice; female BALB/c mice) | ALT (BALB/c mice; female BALB/c mice) | AST (BALB/c mice; female BALB/c mice) | Amylase (BALB/c mice; female BALB/c mice) | Glucose (BALB/c mice; female BALB/c mice) | Urea (BALB/c mice; female BALB/c mice) | ataxia (BALB/c mice; female mice, at MTD i.p.) | drop of eyelids (BALB/c mice; female mice, at MTD i.p.) | hyper/hypoventilation (BALB/c mice; female mice, at MTD i.p.) | ALP (BALB/c mice; male BALB/c mice) | ALT (BALB/c mice; male BALB/c mice) | AST (BALB/c mice; male BALB/c mice) | Amylase (BALB/c mice; male BALB/c mice) | Creatinine (BALB/c mice; male BALB/c mice) | further results
1 | Cl.Cl.Cl.OCCN1CCN(CCCNc2cccc3ccccc23)CC1 [Compound 6, 2-(4-(3-(naphthalen-1-ylamino)propyl)piperazin-1-yl)ethanol trihydrochloride] | 103 ± 7 | 93 ± 3 | 86 ± 4 | 97 ± 4 | 74 ± 3 | 95 ± 4 | 86 U/L and 95 U/L | 29 U/L and 27 U/L | 53 U/L and 50 U/L | 2922 U/L and 2835 U/L | 199 mg/dL and 212 mg/dL | 65 mg/dL and 55 mg/dL | ++ | + | ++ | 38 U/L and 36 U/L | 28 U/L and 25 U/L | 64 U/L and 62 U/L | 2124 U/L and 2086 U/L | 45 µg/dL and 23 µg/dL | Creatinine (BALB/c mice; female BALB/c mice): 22 µg/dL and 34 µg/dL; prostration (BALB/c mice; female mice, at MTD i.p.): +; stooping (BALB/c mice; female mice, at MTD i.p.): ++; Glucose (BALB/c mice; male BALB/c mice): 130 mg/dL and 177 mg/dL; Urea (BALB/c mice; male BALB/c mice): 42 mg/dL and 35 mg/dL; ataxia (BALB/c mice; male mice, at MTD i.p.): +; drop of eyelids (BALB/c mice; male mice, at MTD i.p.): +; hyper/hypoventilation (BALB/c mice; male mice, at MTD i.p.): ++; piloerection (BALB/c mice; male mice, at MTD i.p.): +; prostration (BALB/c mice; male mice, at MTD i.p.): +; stooping (BALB/c mice; male mice, at MTD i.p.): ++; tremor (BALB/c mice; male mice, at MTD i.p.): +; weight at 48 h (%) (BALB/c mice; male mice, at MTD i.p.): -2.3% and -3.0%; IC50 fold higher than that for compound 2 (A549 cells): 11.3 fold; MTC (maximum tolerated concentration) (A549 cells): 0.02 mM; IC50 (A549 cells): 450 ± 10 µM
2 | Cl.Cl.Cl.OCCN1CCN(CCCNc2ccccc2)CC1 [Compound 5, 2-(4-(3-(phenylamino)propyl)piperazin-1-yl)ethanol trihydrochloride] | 86 ± 7 | 104 ± 8 | 91 ± 2 | 109 ± 2 | 93 ± 5 | 105 ± 8 | 88 U/L and 80 U/L | 29 U/L and 22 U/L | 65 U/L and 44 U/L | 2531 U/L and 2489 U/L | 187 mg/dL and 192 mg/dL | 65 mg/dL and 58 mg/dL | + | + | ++ | 37 U/L and 38 U/L | 28 U/L and 29 U/L | 58 U/L and 59 U/L | 1757 U/L and 2008 U/L | 23 µg/dL and 21 µg/dL | tremor (BALB/c mice; female mice, at MTD i.p.): +; Glucose (BALB/c mice; male BALB/c mice): 185 mg/dL and 175 mg/dL; Urea (BALB/c mice; male BALB/c mice): 31 mg/dL and 33 mg/dL; ataxia (BALB/c mice; male mice, at MTD i.p.): ++ and +; drop of eyelids (BALB/c mice; male mice, at MTD i.p.): +; hyper/hypoventilation (BALB/c mice; male mice, at MTD i.p.): ++; lacrimation (BALB/c mice; male mice, at MTD i.p.): +; prostration (BALB/c mice; male mice, at MTD i.p.): ++; saber-like tail (BALB/c mice; male mice, at MTD i.p.): +; tremor (BALB/c mice; male mice, at MTD i.p.): ++; IC50 fold higher than that for compound 2 (A549 cells): 33.8 fold; MTC (maximum tolerated concentration) (A549 cells): 0.05 mM; IC50 (A549 cells): 1350 ± 120 µM
